According to patent publication US7192581B2, “Lactobacillus reuteri useful as probiotics” (Probionic Corp., priority 2001, dated 2007):
In brackets after ≈: the same amount, converted by molar mass. Where two headings read alike, the source gives them in different places.

Tested on: #Probio-16
Experiment: Antibiotic susceptibility of #Probio-16 (paper disc)
Type: cell-based, Lactobacillus reuteri
Protocol: Antibiotic susceptibility of #Probio-16 was assayed according to Microbiology procedures handbook vol. 1 (Henry D. Isenberg, ASM) and Korean Pat. Publication No. 91-4366. In this regard, 13 antibiotics, that is, cephalexcin, erythromycin, flumequinine, furazolidine, gentamycin, procaine, penicillin G, norflaxacine, spectinomycin, tetracycline, tiamuline, neomycin, chloramphenicol, and kanamycin, were dissolved in appropriate solvents. By concentrations, the prepared antibiotic solutions were inoculated in an amount of 30 μl onto a paper disc which was then allowed to stand for 1 hour at 4° C. Inhibitory circles emerging after 24 hours of anaerobic incubation were measured.
Assay of #Probio-16 for antibiotic susceptibility was conduced according to Microbiology Procedures Handbook vol. 1 (Henry D. Isenberg, ASM) and Korean Pat. Publication No. 91-4366, with regard to 13 antibiotics, including cephalexcin, erythromycin, flumequinine, furazolidine, gentamycin, procaine, penicillin G, norflaxacine, spectinomycin, tetracycline, tiamuline, neomycin, chloramphenicol, and kanamycin. By concentrations, antibiotic solutions were inoculated in an amount of 30 μl onto a paper disc which was then allowed to stand for 1 hour at 4° C. Inhibitory circles emerging after 24 hours of anaerobic incubation were measured.

[1] = against #Probio-16, 24 hours anaerobic incubation (Table 3)
[2] = against Lactobacillus reuteri Probio-16
[3] = Limosilactobacillus reuteri, against #Probio-16, 24 hours anaerobic incubation (Table 3), read-out: MIC
[4] = Limosilactobacillus reuteri, against Lactobacillus reuteri Probio-16, read-out: minimal inhibitory concentration (MIC)
[5] = against Lactobacillus reuteri Probio-16 (unit not given)

Compound	MIC [1] [µg/mL]	minimal inhibitory concentration (MIC) [2]	MIC [3] [µg/mL]	MIC [4] [µg/mL]	minimal inhibitory concentration (MIC) [5]
CC1=C(C(=O)O)N2C(=O)[C@@H](NC(=O)[C@H](N)c3ccccc3)[C@H]2SC1 [Cephalexcin]	90 (≈ 259 µM)	90 µg/mL (≈ 259 µM)	–	–	–
O=C(N[C@H](CO)[C@H](O)c1ccc([N+](=O)[O-])cc1)C(Cl)Cl [Chloramphenicol]	–	–	200 (≈ 619 µM)	200 (≈ 619 µM)	–
CC[C@H]1OC(=O)[C@H](C)[C@@H](O[C@H]2C[C@@](C)(OC)[C@@H](O)[C@H](C)O2)[C@H](C)[C@@H](O[C@@H]2O[C@H](C)C[C@H](N(C)C)[C@H]2O)[C@](C)(O)C[C@@H](C)C(=O)[C@H](C)[C@@H](O)[C@]1(C)O [Erythromycin]	–	–	4 (≈ 5.45 µM)	4 (≈ 5.45 µM)	–
CC1CCc2cc(F)cc3c(=O)c(C(=O)O)cn1c23 (centres unmarked) [Flumequinine]	4000 (≈ 15300 µM)	4,000 μg/ml	–	–	–
O=C1OCCN1/N=C/c1ccc([N+](=O)[O-])o1 [Furazolidine]	90 (≈ 400 µM)	90 µg/mL (≈ 400 µM)	–	–	–
NC[C@H]1O[C@H](O[C@H]2[C@H](O)[C@@H](O[C@H]3O[C@H](CO)[C@@H](O)[C@H](N)[C@H]3O)[C@H](N)C[C@@H]2N)[C@H](O)[C@@H](O)[C@@H]1O [Kanamycine]	–	–	4000 (≈ 8260 µM)	4000 (≈ 8260 µM)	–
NC[C@@H]1O[C@H](O[C@H]2[C@@H](O)[C@H](O[C@@H]3[C@@H](O)[C@H](N)C[C@H](N)[C@H]3O[C@H]3O[C@H](CN)[C@@H](O)[C@H](O)[C@H]3N)O[C@@H]2CO)[C@H](N)[C@@H](O)[C@@H]1O [Neomycine]	100 (≈ 163 µM)	100 µg/mL (≈ 163 µM)	–	–	–
CCn1cc(C(=O)O)c(=O)c2cc(F)c(N3CCNCC3)cc21 [Norflaxacine]	1000 (≈ 3130 µM)	–	–	–	100
CN[C@@H]1[C@H](O)[C@H](NC)[C@H]2O[C@@]3(O)C(=O)C[C@@H](C)O[C@H]3O[C@@H]2[C@H]1O [Spectinomycine]	–	–	2500 (≈ 7520 µM)	2500 (≈ 7520 µM)	–
CN(C)[C@@H]1C(O)=C(C(N)=O)C(=O)[C@@]2(O)C(O)=C3C(=O)c4c(O)cccc4[C@@](C)(O)[C@H]3C[C@@H]12 [Tetracycline]	–	–	1500 (≈ 3380 µM)	1500 (≈ 3380 µM)	–
C=C[C@]1(C)C[C@@H](OC(=O)CSCCN(CC)CC)[C@]2(C)[C@H](C)CC[C@]3(CCC(=O)[C@H]32)[C@@H](C)[C@@H]1O [Tiamuline]	–	–	300 (≈ 608 µM)	300 (≈ 608 µM)	–
CC1(C)S[C@@H]2[C@H](NC(=O)Cc3ccccc3)C(=O)N2[C@H]1C(=O)O.CCN(CC)CCOC(=O)c1ccc(N)cc1 [procaine Penicilline G]	4	–	–	–	4
Gentamycine	100	100 µg/mL	–	–	–
